In PubChem BioAssay (NCI):
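Step 1: Grow cells in 96-well plates. Step 2: Expose to compound for 48 hours at 5 concentrations. Step 3: Interpolate endpoints linearly; if unreached, use highest concentration. The concentration for 50% growth inhibition is given as GI50. TGI marks complete inhibition of growth.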

Tests used:
Assay in all cases: NCI tumour cell line growth inhibition, 48 h
IGROV1 ovarian = system: IGROV1 ovarian
OVCAR-4 ovarian = system: OVCAR-4 ovarian
CAKI-1 renal = system: CAKI-1 renal
CCRF-CEM leukemia = system: CCRF-CEM leukemia
HCC-2998 colon = system: HCC-2998 colon
UACC-257 melanoma = system: UACC-257 melanoma
SK-OV-3 ovarian = system: SK-OV-3 ovarian
UO-31 renal = system: UO-31 renal
BT-549 breast = system: BT-549 breast
MALME-3M melanoma = system: MALME-3M melanoma
SK-MEL-28 melanoma = system: SK-MEL-28 melanoma
OVCAR-5 ovarian = system: OVCAR-5 ovarian
RXF 393 renal = system: RXF 393 renal
KM12 colon = system: KM12 colon
DU-145 prostate = system: DU-145 prostate
UACC-62 melanoma = system: UACC-62 melanoma
A549 NSCLC = system: A549 NSCLC
HOP-62 NSCLC = system: HOP-62 NSCLC
SF-295 CNS = system: SF-295 CNS
MDA-MB-231 breast = system: MDA-MB-231 breast
SNB-75 CNS = system: SNB-75 CNS
EKVX NSCLC = system: EKVX NSCLC
HT29 colon = system: HT29 colon
K-562 leukemia = system: K-562 leukemia
SF-539 CNS = system: SF-539 CNS
MOLT-4 leukemia = system: MOLT-4 leukemia
SR leukemia = system: SR leukemia
SNB-19 CNS = system: SNB-19 CNS
MDA-MB-435 = system: MDA-MB-435
SK-MEL-5 melanoma = system: SK-MEL-5 melanoma
SN12C renal = system: SN12C renal
NCI/ADR-RES ovarian = system: NCI/ADR-RES ovarian
U251 CNS = system: U251 CNS
HCT-116 colon = system: HCT-116 colon
SW-620 colon = system: SW-620 colon
OVCAR-3 ovarian = system: OVCAR-3 ovarian
COLO 205 colon = system: COLO 205 colon
HS 578T breast = system: HS 578T breast
HL-60(TB) leukemia = system: HL-60(TB) leukemia
NCI-H226 lung = system: NCI-H226 lung
SF-268 CNS = system: SF-268 CNS
NCI-H23 lung = system: NCI-H23 lung
ACHN renal = system: ACHN renal
RPMI-8226 leukemia = system: RPMI-8226 leukemia
SK-MEL-2 melanoma = system: SK-MEL-2 melanoma
786-0 renal = system: 786-0 renal
PC-3 prostate = system: PC-3 prostate
OVCAR-8 ovarian = system: OVCAR-8 ovarian
HOP-92 NSCLC = system: HOP-92 NSCLC
MCF7 breast = system: MCF7 breast
HCT-15 colon = system: HCT-15 colon
T-47D breast = system: T-47D breast
NCI-H460 lung = system: NCI-H460 lung
M14 melanoma = system: M14 melanoma
A498 renal = system: A498 renal
TK-10 renal = system: TK-10 renal

C#C[C@]1(O)CC[C@H]2[C@@H]3CC=C4c5sc(Nc6cc(C)cc(C)c6)nc5CC[C@]4(C)[C@H]3CC[C@@]21C
GI50 (IGROV1 ovarian): 4.85 µM | TGI (IGROV1 ovarian): 60.6 µM | GI50 (OVCAR-4 ovarian): 4.63 µM | TGI (OVCAR-4 ovarian): > 100 µM | GI50 (CAKI-1 renal): 2.69 µM | TGI (CAKI-1 renal): 15 µM | GI50 (CCRF-CEM leukemia): 1.7 µM | TGI (CCRF-CEM leukemia): 8.43 µM | GI50 (HCC-2998 colon): 5.47 µM | TGI (HCC-2998 colon): 23 µM | GI50 (UACC-257 melanoma): 3.07 µM | TGI (UACC-257 melanoma): 21.7 µM | GI50 (SK-OV-3 ovarian): 2.23 µM | TGI (SK-OV-3 ovarian): 7.94 µM | GI50 (UO-31 renal): 2.72 µM | TGI (UO-31 renal): 9.7 µM | GI50 (BT-549 breast): 0.556 µM | TGI (BT-549 breast): 5.82 µM | GI50 (MALME-3M melanoma): 1.87 µM | TGI (MALME-3M melanoma): 5.6 µM | GI50 (SK-MEL-28 melanoma): 1.07 µM | TGI (SK-MEL-28 melanoma): 2.95 µM | GI50 (OVCAR-5 ovarian): 3.69 µM | TGI (OVCAR-5 ovarian): 15.8 µM | GI50 (RXF 393 renal): 0.142 µM | TGI (RXF 393 renal): 0.428 µM | GI50 (KM12 colon): 2.6 µM | TGI (KM12 colon): 8.05 µM | GI50 (DU-145 prostate): 4.18 µM | TGI (DU-145 prostate): 21.8 µM | GI50 (UACC-62 melanoma): 1.69 µM | TGI (UACC-62 melanoma): 4.1 µM | GI50 (A549 NSCLC): 4.08 µM | TGI (A549 NSCLC): 28.5 µM | GI50 (HOP-62 NSCLC): 2.55 µM | TGI (HOP-62 NSCLC): 20.1 µM | GI50 (SF-295 CNS): 0.297 µM | TGI (SF-295 CNS): 0.966 µM | GI50 (MDA-MB-231 breast): 2.96 µM | TGI (MDA-MB-231 breast): 15.1 µM | GI50 (SNB-75 CNS): 0.547 µM | TGI (SNB-75 CNS): 7.91 µM | GI50 (EKVX NSCLC): 3.12 µM | TGI (EKVX NSCLC): 31.3 µM | GI50 (HT29 colon): 1.65 µM | TGI (HT29 colon): 4.32 µM | GI50 (K-562 leukemia): 1.58 µM | TGI (K-562 leukemia): 4.33 µM | GI50 (SF-539 CNS): 0.392 µM | TGI (SF-539 CNS): 1.71 µM | GI50 (MOLT-4 leukemia): 0.555 µM | TGI (MOLT-4 leukemia): 5.83 µM | GI50 (SR leukemia): 1.17 µM | TGI (SR leukemia): 5.88 µM | GI50 (SNB-19 CNS): 2 µM | TGI (SNB-19 CNS): 11.6 µM | GI50 (MDA-MB-435): 2.83 µM | TGI (MDA-MB-435): 12.4 µM | GI50 (SK-MEL-5 melanoma): 1.65 µM | TGI (SK-MEL-5 melanoma): 3.15 µM | GI50 (SN12C renal): 8.38 µM | TGI (SN12C renal): 30.5 µM | GI50 (NCI/ADR-RES ovarian): 4.86 µM | TGI (NCI/ADR-RES ovarian): 45.5 µM | GI50 (U251 CNS): 1.09 µM | TGI (U251 CNS): 18.4 µM | GI50 (HCT-116 colon): 1.98 µM | TGI (HCT-116 colon): 10.1 µM | GI50 (SW-620 colon): 2.12 µM | TGI (SW-620 colon): 4.89 µM | GI50 (OVCAR-3 ovarian): 3.59 µM | TGI (OVCAR-3 ovarian): 16.9 µM | GI50 (COLO 205 colon): 2.42 µM | TGI (COLO 205 colon): 5.9 µM | GI50 (HS 578T breast): 0.526 µM | TGI (HS 578T breast): 5.89 µM | GI50 (HL-60(TB) leukemia): 1.29 µM | TGI (HL-60(TB) leukemia): 5.55 µM | GI50 (NCI-H226 lung): 2.29 µM | TGI (NCI-H226 lung): 7.99 µM | GI50 (SF-268 CNS): 2.54 µM | TGI (SF-268 CNS): 20.2 µM | GI50 (NCI-H23 lung): 2.87 µM | TGI (NCI-H23 lung): 17 µM | GI50 (ACHN renal): 3.72 µM | TGI (ACHN renal): 20.5 µM | GI50 (RPMI-8226 leukemia): 0.272 µM | TGI (RPMI-8226 leukemia): 0.823 µM | GI50 (SK-MEL-2 melanoma): 1.46 µM | TGI (SK-MEL-2 melanoma): 10.3 µM | GI50 (786-0 renal): 0.429 µM | TGI (786-0 renal): 2.28 µM | GI50 (PC-3 prostate): 1.53 µM | TGI (PC-3 prostate): 11.9 µM | GI50 (OVCAR-8 ovarian): 7.08 µM | TGI (OVCAR-8 ovarian): > 100 µM | GI50 (HOP-92 NSCLC): 3.17 µM | TGI (HOP-92 NSCLC): 13.6 µM | GI50 (MCF7 breast): 1.61 µM | TGI (MCF7 breast): 6.22 µM | GI50 (HCT-15 colon): 1.88 µM | TGI (HCT-15 colon): 5.58 µM | GI50 (T-47D breast): 3.4 µM | TGI (T-47D breast): 85.8 µM | GI50 (NCI-H460 lung): 2.72 µM | TGI (NCI-H460 lung): 13 µM | GI50 (M14 melanoma): 1.58 µM | TGI (M14 melanoma): 6.87 µM | GI50 (A498 renal): 0.791 µM | TGI (A498 renal): 2.98 µM | GI50 (TK-10 renal): 9.87 µM | TGI (TK-10 renal): 36.5 µM
